± gives the expanded uncertainty stated by the source.
Assay: xn = mol fraction of the nth substance listed
Details: Liquid; for speed of sound: Pulse-echo method

Compound `CCCCCCCCCCCC` [dodecane] + CCCCCCC has a speed of sound (303.14 K, 30390 kPa, x2 = 0) of 1423.8 ± 2.4 m/s, a speed of sound (303.14 K, 30390 kPa, x2 = 0.1014) of 1415.2 ± 2.4 m/s and a speed of sound (303.14 K, 30390 kPa, x2 = 0.4999) of 1376.6 ± 2.4 m/s. The speed of sound (303.14 K, 30390 kPa, x2 = 0.5003) was 1376.5 ± 2.4 m/s, the speed of sound (303.14 K, 45590 kPa, x2 = 0) was 1491.4 ± 2.4 m/s and the speed of sound (303.14 K, 45590 kPa, x2 = 0.1014) was 1483.5 ± 2.4 m/s. It also gave a speed of sound (303.14 K, 45590 kPa, x2 = 0.3007) of 1466.1 ± 2.4 m/s, a speed of sound (303.14 K, 45590 kPa, x2 = 0.4999) of 1448 ± 2.4 m/s and a speed of sound (303.14 K, 45590 kPa, x2 = 0.5003) of 1448.1 ± 2.4 m/s. The speed of sound (303.14 K, 60790 kPa, x2 = 0) was 1553.1 ± 2.5 m/s, the speed of sound (303.14 K, 60790 kPa, x2 = 0.1014) was 1545.7 ± 2.5 m/s and the speed of sound (303.14 K, 60790 kPa, x2 = 0.4999) was 1512.9 ± 2.5 m/s. The speed of sound (303.14 K, 60790 kPa, x2 = 0.5003) was 1513 ± 2.5 m/s, the speed of sound (303.14 K, 60790 kPa, x2 = 0.7007) was 1491.3 ± 2.5 m/s and the speed of sound (303.14 K, 75990 kPa, x2 = 0) was 1610.9 ± 2.5 m/s. It also gave a speed of sound (303.14 K, 75990 kPa, x2 = 0.1014) of 1603.8 ± 2.5 m/s, a speed of sound (303.14 K, 75990 kPa, x2 = 0.4999) of 1572.4 ± 2.5 m/s and a speed of sound (303.14 K, 75990 kPa, x2 = 0.5003) of 1572.6 ± 2.5 m/s. For the same compound, the speed of sound (303.14 K, 75990 kPa, x2 = 0.7007) was 1552 ± 2.5 m/s, the speed of sound (303.14 K, 91180 kPa, x2 = 0) was 1664.1 ± 2.5 m/s and the speed of sound (303.14 K, 91180 kPa, x2 = 0.1014) was 1657.4 ± 2.5 m/s. The speed of sound (303.14 K, 91180 kPa, x2 = 0.3007) was 1642.8 ± 2.5 m/s, the speed of sound (303.14 K, 91180 kPa, x2 = 0.4999) was 1627.9 ± 2.6 m/s and the speed of sound (303.14 K, 91180 kPa, x2 = 0.5003) was 1628.3 ± 2.6 m/s. It also gave a speed of sound (303.14 K, 91180 kPa, x2 = 0.7007) of 1609.1 ± 2.6 m/s, a speed of sound (303.14 K, 101320 kPa, x2 = 0) of 1697.4 ± 2.6 m/s and a speed of sound (303.14 K, 101320 kPa, x2 = 0.3007) of 1677 ± 2.6 m/s. For the same compound, the speed of sound (303.14 K, 101320 kPa, x2 = 0.4999) was 1662.6 ± 2.6 m/s, the speed of sound (303.14 K, 101320 kPa, x2 = 0.7007) was 1644.6 ± 2.6 m/s and the speed of sound (303.15 K, 101 kPa, x2 = 0) was 1259.3 ± 1.6 m/s. The speed of sound (303.15 K, 101 kPa, x2 = 0.3002) was 1226.7 ± 1.6 m/s, the speed of sound (303.15 K, 101 kPa, x2 = 0.7002) was 1168.2 ± 1.6 m/s and the mass density (303.15 K, 101 kPa, x2 = 0) was 741.636 ± 0.64 kg/m3. The mass density (303.15 K, 101 kPa, x2 = 0.0991) was 737.456 ± 0.64 kg/m3, the mass density (303.15 K, 101 kPa, x2 = 0.2008) was 732.789 ± 0.65 kg/m3 and the mass density (303.15 K, 101 kPa, x2 = 0.2998) was 727.833 ± 0.66 kg/m3. It also gave a mass density (303.15 K, 101 kPa, x2 = 0.7005) of 702.52 ± 0.69 kg/m3, a mass density (303.15 K, 101 kPa, x2 = 0.7995) of 694.549 ± 0.7 kg/m3 and a mass density (303.15 K, 101 kPa, x2 = 0.8486) of 690.238 ± 0.7 kg/m3. It also gave a mass density (303.15 K, 101 kPa, x2 = 0.8988) of 685.588 ± 0.71 kg/m3, a mass density (303.15 K, 101 kPa, x2 = 0.9498) of 680.563 ± 0.72 kg/m3 and a speed of sound (303.15 K, 15200 kPa, x2 = 0) of 1348.5 ± 2.4 m/s. The speed of sound (303.15 K, 15200 kPa, x2 = 0.3007) was 1317.9 ± 2.4 m/s, the speed of sound (303.15 K, 15200 kPa, x2 = 0.5003) was 1296.5 ± 2.4 m/s and the speed of sound (303.15 K, 15200 kPa, x2 = 0.7007) was 1268.1 ± 2.4 m/s. For the same compound, the speed of sound (303.15 K, 30390 kPa, x2 = 0.3007) was 1396 ± 2.4 m/s, the speed of sound (303.15 K, 30390 kPa, x2 = 0.7007) was 1351.3 ± 2.4 m/s and the speed of sound (303.15 K, 30390 kPa, x2 = 0.8496) was 1331.4 ± 2.4 m/s. The speed of sound (303.15 K, 45590 kPa, x2 = 0.7007) was 1425 ± 2.4 m/s, the speed of sound (303.15 K, 60790 kPa, x2 = 0.3007) was 1529.4 ± 2.5 m/s and the speed of sound (303.15 K, 75990 kPa, x2 = 0.3007) was 1588.1 ± 2.5 m/s. It also gave a speed of sound (303.15 K, 75990 kPa, x2 = 0.8496) of 1536.5 ± 2.5 m/s, a speed of sound (303.15 K, 91180 kPa, x2 = 0.8496) of 1594.2 ± 2.6 m/s and a speed of sound (303.15 K, 101320 kPa, x2 = 0.8496) of 1630.5 ± 2.6 m/s. It also gave a speed of sound (303.16 K, 101 kPa, x2 = 0.1007) of 1249.4 ± 1.6 m/s, a speed of sound (303.16 K, 101 kPa, x2 = 0.3996) of 1213.9 ± 1.6 m/s and a speed of sound (303.16 K, 101 kPa, x2 = 0.5002) of 1199.8 ± 1.6 m/s. For the same compound, the speed of sound (303.16 K, 101 kPa, x2 = 0.8) was 1150.3 ± 1.6 m/s, the mass density (303.16 K, 101 kPa, x2 = 0.3996) was 722.389 ± 0.66 kg/m3 and the mass density (303.16 K, 101 kPa, x2 = 0.5) was 716.383 ± 0.67 kg/m3. For the same compound, the mass density (303.16 K, 101 kPa, x2 = 0.6) was 709.824 ± 0.68 kg/m3, the speed of sound (303.16 K, 15200 kPa, x2 = 0.8496) was 1245.8 ± 2.4 m/s and the speed of sound (303.16 K, 45590 kPa, x2 = 0.8496) was 1406.8 ± 2.4 m/s. The speed of sound (303.16 K, 60790 kPa, x2 = 0.8496) was 1474.8 ± 2.5 m/s.

From the NIST ThermoML archive (doi:10.1016/j.jct.2008.05.014)
